What was measured:
[1] = molecular target: Glutamate receptor ionotropic, NMDA 1 (Rattus norvegicus, UniProt P35439)
[2] = molecular target: Histamine H2 receptor (Homo sapiens, UniProt P25021); format: functional, cell-based
[3] = molecular target: T1, Endothelin-1 receptor (Homo sapiens, UniProt P25101)
T1 sequence (P25101 whole entry): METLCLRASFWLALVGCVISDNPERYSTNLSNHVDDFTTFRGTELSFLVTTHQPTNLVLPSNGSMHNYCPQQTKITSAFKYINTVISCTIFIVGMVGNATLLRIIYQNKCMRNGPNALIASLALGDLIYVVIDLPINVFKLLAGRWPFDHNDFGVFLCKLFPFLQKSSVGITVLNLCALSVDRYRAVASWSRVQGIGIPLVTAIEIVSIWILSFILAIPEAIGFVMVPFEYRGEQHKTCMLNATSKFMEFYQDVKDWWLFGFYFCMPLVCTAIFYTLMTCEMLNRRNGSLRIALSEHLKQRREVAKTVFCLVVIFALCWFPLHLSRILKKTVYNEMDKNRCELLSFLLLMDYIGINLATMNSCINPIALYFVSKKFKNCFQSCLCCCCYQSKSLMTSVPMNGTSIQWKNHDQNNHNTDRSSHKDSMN

[4] = molecular target: T2, Alpha-1A adrenergic receptor (Homo sapiens, UniProt P35348); format: functional, cell-based
T2 sequence (P35348 whole entry): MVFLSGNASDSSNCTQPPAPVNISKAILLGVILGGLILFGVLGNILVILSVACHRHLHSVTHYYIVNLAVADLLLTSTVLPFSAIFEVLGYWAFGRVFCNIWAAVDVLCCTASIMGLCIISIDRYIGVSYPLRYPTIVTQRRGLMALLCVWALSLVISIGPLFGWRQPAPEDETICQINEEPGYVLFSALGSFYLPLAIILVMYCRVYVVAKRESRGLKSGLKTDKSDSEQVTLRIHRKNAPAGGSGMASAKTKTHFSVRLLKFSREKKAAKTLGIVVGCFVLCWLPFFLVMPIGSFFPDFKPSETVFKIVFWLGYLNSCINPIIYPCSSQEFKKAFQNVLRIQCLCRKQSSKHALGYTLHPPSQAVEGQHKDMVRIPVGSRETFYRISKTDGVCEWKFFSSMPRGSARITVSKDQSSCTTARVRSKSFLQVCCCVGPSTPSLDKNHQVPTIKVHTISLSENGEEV

[5] = molecular target: T3, B2 bradykinin receptor (Homo sapiens, UniProt P30411)
T3 sequence (P30411 whole entry): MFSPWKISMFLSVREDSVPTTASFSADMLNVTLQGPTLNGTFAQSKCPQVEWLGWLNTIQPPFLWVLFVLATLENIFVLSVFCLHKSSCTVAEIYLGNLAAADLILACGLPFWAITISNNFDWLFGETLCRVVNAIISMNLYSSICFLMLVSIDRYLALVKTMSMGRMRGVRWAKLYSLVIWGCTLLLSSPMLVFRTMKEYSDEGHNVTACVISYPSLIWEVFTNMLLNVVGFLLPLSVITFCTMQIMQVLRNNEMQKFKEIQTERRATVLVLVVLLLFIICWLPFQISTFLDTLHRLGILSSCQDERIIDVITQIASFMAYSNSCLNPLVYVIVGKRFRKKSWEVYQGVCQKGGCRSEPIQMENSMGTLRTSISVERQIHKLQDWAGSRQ

[6] = molecular target: T4, Alpha-2C adrenergic receptor (Homo sapiens, UniProt P18825); format: functional
T4 sequence (P18825 whole entry): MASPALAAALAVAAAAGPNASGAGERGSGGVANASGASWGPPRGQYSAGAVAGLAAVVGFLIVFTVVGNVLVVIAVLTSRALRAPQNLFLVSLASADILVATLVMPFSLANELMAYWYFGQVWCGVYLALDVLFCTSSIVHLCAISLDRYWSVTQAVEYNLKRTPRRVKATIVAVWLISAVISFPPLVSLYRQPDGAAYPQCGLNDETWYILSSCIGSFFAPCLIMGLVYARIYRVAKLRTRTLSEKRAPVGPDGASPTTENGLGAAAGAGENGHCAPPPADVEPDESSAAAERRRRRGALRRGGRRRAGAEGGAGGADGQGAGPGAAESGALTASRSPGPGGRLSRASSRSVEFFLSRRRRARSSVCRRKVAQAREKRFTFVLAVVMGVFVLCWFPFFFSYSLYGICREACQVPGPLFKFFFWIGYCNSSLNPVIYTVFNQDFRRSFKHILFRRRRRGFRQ

[7] = molecular target: cGMP-inhibited 3',5'-cyclic phosphodiesterase 3A (Homo sapiens, UniProt Q14432); format: functional
[8] = molecular target: T5, 5-hydroxytryptamine receptor 2C (Homo sapiens, UniProt P28335)
T5 sequence (P28335 whole entry): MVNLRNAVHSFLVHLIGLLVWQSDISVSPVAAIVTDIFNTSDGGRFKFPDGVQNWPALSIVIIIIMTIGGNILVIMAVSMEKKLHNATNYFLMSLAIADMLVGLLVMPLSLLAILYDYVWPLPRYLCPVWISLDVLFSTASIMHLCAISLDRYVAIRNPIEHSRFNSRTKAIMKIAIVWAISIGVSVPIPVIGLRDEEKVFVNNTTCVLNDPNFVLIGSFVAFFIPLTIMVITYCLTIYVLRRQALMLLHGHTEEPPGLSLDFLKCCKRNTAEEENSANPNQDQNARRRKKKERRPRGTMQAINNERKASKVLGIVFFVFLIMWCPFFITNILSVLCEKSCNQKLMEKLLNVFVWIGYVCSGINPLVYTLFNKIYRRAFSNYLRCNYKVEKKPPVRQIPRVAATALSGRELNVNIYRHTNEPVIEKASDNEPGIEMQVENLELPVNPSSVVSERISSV

[9] = molecular target: Vasopressin V1a receptor (Homo sapiens, UniProt P37288)
[10] = molecular target: T6, Adenosine receptor A3 (Homo sapiens, UniProt P0DMS8)
T6 sequence (P0DMS8 whole entry): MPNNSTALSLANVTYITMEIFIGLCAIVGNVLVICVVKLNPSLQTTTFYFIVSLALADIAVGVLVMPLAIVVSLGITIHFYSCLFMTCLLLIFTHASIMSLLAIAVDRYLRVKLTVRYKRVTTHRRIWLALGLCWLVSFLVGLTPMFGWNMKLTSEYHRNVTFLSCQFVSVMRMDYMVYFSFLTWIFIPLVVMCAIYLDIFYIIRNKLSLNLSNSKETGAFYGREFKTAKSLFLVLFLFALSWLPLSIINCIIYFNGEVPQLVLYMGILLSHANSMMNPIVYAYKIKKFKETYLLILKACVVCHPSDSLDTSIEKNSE

[11] = molecular target: Muscarinic acetylcholine receptor M3 (Homo sapiens, UniProt P20309)
Also: assay procedure not described here.

cGMP-inhibited 3',5'-cyclic phosphodiesterase 3A, sequence (Q14432 whole entry): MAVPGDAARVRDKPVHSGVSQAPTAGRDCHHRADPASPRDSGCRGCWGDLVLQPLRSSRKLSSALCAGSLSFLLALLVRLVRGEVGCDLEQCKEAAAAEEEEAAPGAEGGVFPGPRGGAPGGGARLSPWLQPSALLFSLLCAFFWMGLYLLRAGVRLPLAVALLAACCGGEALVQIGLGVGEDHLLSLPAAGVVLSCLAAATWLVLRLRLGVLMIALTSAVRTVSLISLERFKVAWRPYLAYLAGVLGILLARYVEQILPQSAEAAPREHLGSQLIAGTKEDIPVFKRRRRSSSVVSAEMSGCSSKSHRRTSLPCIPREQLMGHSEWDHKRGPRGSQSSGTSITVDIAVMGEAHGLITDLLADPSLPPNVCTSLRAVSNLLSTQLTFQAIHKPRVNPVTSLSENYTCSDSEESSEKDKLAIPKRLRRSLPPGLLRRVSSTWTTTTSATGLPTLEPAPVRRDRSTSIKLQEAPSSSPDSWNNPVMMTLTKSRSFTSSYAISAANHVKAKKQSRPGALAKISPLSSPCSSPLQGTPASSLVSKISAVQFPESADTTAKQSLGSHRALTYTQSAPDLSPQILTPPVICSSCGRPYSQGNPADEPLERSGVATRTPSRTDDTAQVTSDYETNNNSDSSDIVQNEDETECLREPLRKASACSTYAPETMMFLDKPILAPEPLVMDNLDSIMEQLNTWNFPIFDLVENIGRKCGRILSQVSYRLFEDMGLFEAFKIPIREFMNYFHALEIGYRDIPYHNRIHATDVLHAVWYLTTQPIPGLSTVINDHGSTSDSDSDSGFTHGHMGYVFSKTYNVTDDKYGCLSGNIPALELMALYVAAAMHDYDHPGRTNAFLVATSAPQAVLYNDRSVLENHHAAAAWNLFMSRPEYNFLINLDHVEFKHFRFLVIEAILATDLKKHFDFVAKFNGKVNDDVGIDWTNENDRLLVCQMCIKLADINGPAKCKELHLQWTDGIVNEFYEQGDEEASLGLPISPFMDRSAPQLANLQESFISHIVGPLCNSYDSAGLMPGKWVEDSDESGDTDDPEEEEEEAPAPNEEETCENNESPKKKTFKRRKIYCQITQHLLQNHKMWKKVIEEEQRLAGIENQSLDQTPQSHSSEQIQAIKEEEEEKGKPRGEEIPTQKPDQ
Muscarinic acetylcholine receptor M3, sequence (P20309 whole entry): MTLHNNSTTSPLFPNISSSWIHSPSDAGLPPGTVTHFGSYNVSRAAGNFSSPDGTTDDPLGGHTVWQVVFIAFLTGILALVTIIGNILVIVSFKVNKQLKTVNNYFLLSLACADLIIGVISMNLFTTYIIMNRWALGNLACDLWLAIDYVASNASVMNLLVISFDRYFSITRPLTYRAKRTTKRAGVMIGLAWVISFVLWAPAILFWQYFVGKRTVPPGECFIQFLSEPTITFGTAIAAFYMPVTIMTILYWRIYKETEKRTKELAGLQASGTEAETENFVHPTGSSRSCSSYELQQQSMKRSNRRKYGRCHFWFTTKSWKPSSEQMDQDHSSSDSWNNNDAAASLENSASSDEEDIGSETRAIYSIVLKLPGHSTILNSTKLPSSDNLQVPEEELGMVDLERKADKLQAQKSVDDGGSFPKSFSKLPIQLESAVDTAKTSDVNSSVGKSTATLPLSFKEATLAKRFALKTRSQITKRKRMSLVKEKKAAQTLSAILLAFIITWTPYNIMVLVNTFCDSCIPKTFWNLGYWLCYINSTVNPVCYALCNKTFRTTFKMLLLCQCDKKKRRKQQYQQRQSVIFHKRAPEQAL
Histamine H2 receptor, sequence (P25021 whole entry): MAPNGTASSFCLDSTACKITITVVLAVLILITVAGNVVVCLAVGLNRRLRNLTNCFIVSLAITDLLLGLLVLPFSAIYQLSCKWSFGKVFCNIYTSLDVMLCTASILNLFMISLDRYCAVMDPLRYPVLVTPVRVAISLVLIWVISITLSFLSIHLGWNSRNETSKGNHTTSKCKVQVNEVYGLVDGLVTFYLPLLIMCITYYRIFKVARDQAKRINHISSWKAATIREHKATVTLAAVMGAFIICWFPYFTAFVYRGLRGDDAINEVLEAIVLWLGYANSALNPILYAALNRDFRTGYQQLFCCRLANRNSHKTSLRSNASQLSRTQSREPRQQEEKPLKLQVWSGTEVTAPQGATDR
Vasopressin V1a receptor, sequence (P37288 whole entry): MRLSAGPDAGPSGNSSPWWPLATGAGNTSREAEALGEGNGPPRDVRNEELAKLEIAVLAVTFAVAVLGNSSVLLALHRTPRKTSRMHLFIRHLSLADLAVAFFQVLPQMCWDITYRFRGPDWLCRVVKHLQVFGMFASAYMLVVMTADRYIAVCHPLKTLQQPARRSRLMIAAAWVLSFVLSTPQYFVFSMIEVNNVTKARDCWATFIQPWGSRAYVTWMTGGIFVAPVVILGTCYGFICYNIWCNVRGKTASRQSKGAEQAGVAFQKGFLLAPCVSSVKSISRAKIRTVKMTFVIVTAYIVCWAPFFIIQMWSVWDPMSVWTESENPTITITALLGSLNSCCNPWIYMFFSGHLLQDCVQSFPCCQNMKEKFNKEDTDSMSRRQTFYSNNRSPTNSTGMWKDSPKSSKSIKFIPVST

| Compound | AC50 [1] [µM] | AC50 [2] [µM] | AC50 [3] [µM] | AC50 [4] [µM] | AC50 [5] [µM] | AC50 [6] [µM] | AC50 [7] [µM] | AC50 [8] [µM] | AC50 [9] [µM] | AC50 [10] [µM] | AC50 [11] [µM] |
| --- | --- | --- | --- | --- | --- | --- | --- | --- | --- | --- | --- |
| O=C1CN=C(c2ccccc2Cl)c2cc([N+](=O)[O-])ccc2N1 [CLONAZEPAM] | > 10 | > 10 | > 30 | > 30 | > 30 | > 10 | > 30 | > 30 | > 10 | > 30 |  |
| C[C@@H](Cc1ccccc1)N(C)Cc1ccccc1 [BENZPHETAMINE] | > 10 | > 10 |  | 13 | > 10 | 0.68 | > 30 | > 30 | > 10 | > 10 | > 30 |
| TEPRENONE | > 10 | > 10 |  | > 30 | > 30 | > 10 | > 30 | > 30 | > 30 | > 30 | > 30 |
| CN1C2CCCC1CC(NC(=O)c1nn(C)c3ccccc13)C2 (stereo unspecified) [GRANISETRON] | > 10 | > 10 | > 30 | > 30 | > 30 | > 10 | > 10 |  | > 10 | > 30 |  |
| CCCCOC(=O)c1ccc(N)cc1 [BUTAMBEN] | > 30 | > 30 | > 30 | > 30 | > 30 | > 30 | > 30 | > 30 |  | > 30 |  |
| CC(=O)OCC(=O)[C@@]1(O)CC[C@H]2[C@@H]3CCC4=CC(=O)CC[C@]4(C)[C@@]3(F)[C@@H](O)C[C@@]21C [FLUDROCORTISONE ACETATE] | > 30 | > 30 | > 30 | > 30 | > 30 | > 30 | > 30 | > 30 |  | > 30 |  |
| OCC(CO)N[C@H]1C[C@](O)(CO)[C@@H](O)[C@H](O)[C@H]1O [VOGLIBOSE] | > 30 | > 30 |  | > 30 | > 30 | > 30 | > 30 | > 30 | > 30 | > 30 | > 30 |
| CNCCc1ccccn1 [BETAHISTINE] | > 30 | > 30 | > 30 | > 30 | > 30 | > 30 | > 30 | > 30 |  | > 30 |  |
| C=C(c1ccccc1OCc1cccc(Cl)c1)n1ccnc1 [CROCONAZOLE] | > 10 | > 10 |  | 21 | > 30 | > 10 | > 30 | 18 | > 30 | 11.5 | > 30 |
| O=C(O[C@H]1C[N+]2(CCCOc3ccccc3)CCC1CC2)C(O)(c1cccs1)c1cccs1 [ACLIDINIUM BROMIDE] | > 10 |  | > 30 |  | > 30 | 2.5 | > 30 | > 30 | > 10 | > 30 |  |
| CC(C(=O)O)c1ccc(C(=O)c2ccccc2)s1 (stereo unspecified) [TIAPROFENIC ACID] | > 10 | > 10 |  | > 30 | > 10 | 15 | > 30 | > 30 | > 10 | > 10 | > 30 |
| CC(NC(C)(C)C)C(=O)c1cccc(Cl)c1 (stereo unspecified) [BUPROPION] | > 10 | > 10 | > 30 | > 30 | > 30 | > 10 |  | > 30 | > 10 | > 30 |  |
| O=C(C[S+]([O-])Cc1ccco1)NC/C=C\COc1cc(CN2CCCCC2)ccn1 (stereo unspecified) [LAFUTIDINE] | > 10 | > 10 |  | > 30 | > 10 | 2.6 | > 30 | > 30 | > 10 | > 10 | > 30 |
| CCN(CC)CC(=O)Nc1c(C)cccc1C [LIDOCAINE] |  |  | > 30 |  | > 30 |  | > 10 |  | > 10 | > 30 |  |
| COc1nc(C)nc(Cl)c1N=C1NCCN1 [MOXONIDINE] | > 30 | 16 | > 30 |  | > 30 |  | > 30 | > 30 |  | > 30 |  |
| Cc1cnc(Nc2ccc(OCCN3CCCC3)cc2)nc1Nc1cccc(S(=O)(=O)NC(C)(C)C)c1 [FEDRATINIB] | > 10 | > 10 |  |  | > 30 | 7.4 | > 30 | > 30 | > 30 | 6.83 | 5.7 |
| CCc1ccc(C(=O)C(C)CN2CCCCC2)cc1 (stereo unspecified) [EPERISONE] | > 30 | > 30 | > 30 | > 30 | > 30 | 2.09 | > 30 | > 30 |  | > 30 |  |
| Nc1nc(Cl)nc2c1ncn2[C@@H]1O[C@H](CO)[C@@H](O)[C@@H]1F [CLOFARABINE] | > 10 | > 30 |  |  | > 30 | > 30 | 6.4 | > 30 | > 30 | 18.2 | > 30 |
| CN(C)CCOC(=O)C(c1ccccc1)C1(O)CCCC1 (stereo unspecified) [CYCLOPENTOLATE] | > 10 | > 30 |  |  | > 10 | > 30 | > 30 | > 30 | > 10 | > 10 | 0.04 |
